Measured values reported in patent US20100234306A1, “USE OF A PEPTIDE AS A THERAPEUTIC AGENT” (priority 2007, published 2010).
Where no end group is shown, it is not given here.

System: drug-resistant Mycobacterium tuberculosis
Details: Mycobacterium tuberculosis resistant against PAS, streptomycin and isoniazid; Middlebrook 7H12, seven days; peptide 10 micrograms per ml

## MQMKKVLDS-OH [AIP-1]
  % inhibition: 100.0%
